# Experimental data taken from a melting point compilation (Tetko et al.; mined from patent text by program, amines drawn as free bases though some values may be those of a salt).
row,SMILES,melting point [°C]
1,CSC(C[C@H](NC(=O)[C@H](CC(C)C)NC(=O)OCc1ccccc1)C(C)=O)c1ccccc1 (stereo partly specified),119 to 120
2,COc1ccc(C=Nc2cc(OC)c(OC)c(OC)c2)cc1O[Si](C)(C)C(C)(C)C,90 to 91
3,CC(=O)OC1=C(C(=O)c2ccc(C)cc2)C(c2ccc(OC(F)(F)F)cc2)N(c2ccc(C)nn2)C1=O (stereo unspecified),165 to 166
4,COc1cc2c(cc1OC)N(C)C(=O)CN=C2c1cccc(CO)c1,143 to 146
5,CC(=O)Oc1ccc(C(C)(c2ccc(OC(C)=O)cc2)c2ccc(OC(C)=O)cc2)cc1,169
6,OCC1OC(n2c(Cl)nc3c(NCc4ccccc4)ncnc32)C(O)C1O (stereo unspecified),90 to 92
7,O=C(O)CCCCC(=NOCc1ccc(OCc2nc(-c3ccccc3)no2)cc1)c1ccccc1,91 to 92
8,CC(C)C1CCN(Cc2ccc(COc3cccc4c3CN(C3CCC(=O)NC3=O)C4=O)cc2)CC1 (stereo unspecified),124 to 126
9,NC(=O)/C=C/c1cnoc1-c1ccccc1,194 to 196
10,CC(C)CCC(O)C(CC1CCCCC1)NC(=O)C(Cc1c[nH]cn1)N(C)C(=O)C(Cc1ccccc1)NC(=O)N1CCOCC1 (stereo unspecified),102 to 108
11,CCn1c(N(C)C)nc2cc(C(F)(F)F)c(Cl)c(N)c21,99 to 100
12,CCN(Cc1nc2cc(OC)c(OC)cc2c(-c2ccc(OC)c(OC)c2)c1C(C)=O)C(C)(C)C,156 to 157
13,CC(CO)(CO)NS(=O)(=O)c1cc(NC(=O)c2cnn3c(C(F)F)cc(-c4ccc(C(F)(F)F)cc4)nc23)c(Cl)s1,237
14,c1cncc(-c2nsnc2SCCCc2cccs2)c1,98 to 100
15,CN1CCC(c2cc3ccc(Cl)cc3c(=O)[nH]2)CC1,253 to 255
16,Fc1ccc2c(c1)C(OCc1c(F)cccc1F)C(Cn1ccnc1)S2 (stereo unspecified),167 to 168
17,O=C(O)c1ccc(S(=O)(=O)Oc2ccc(-c3ccc(-c4c(Cc5ccccc5)oc5ccccc45)cc3)cc2[N+](=O)[O-])cc1O,75
18,OCC1OC2CC(O)CC(C2)O1 (stereo unspecified),146 to 149
19,C=CCN(CC=C)Cc1noc(-c2ncn3c2[C@@H]2CCN2C(=O)c2c-3ccc(F)c2Cl)n1,127
20,Nc1ccc(F)c(F)c1NC(=S)Nc1c(Cl)cccc1Cl,> 310
21,CNc1ccc(-c2[nH]cnc2-c2cc(OC)cc(OC)c2)cc1F,182 to 184
22,ON=Cc1ncc(-c2ccccc2)o1,208 to 210
23,CC1(C)OC(=O)Nc2ccc(-c3cc(Cl)cc(C#N)c3)cc21,256 to 257
24,FC(F)(F)c1cc(Br)c(OCc2ccccc2)c(OCc2ccccc2)c1,79 to 80
25,CCCN(Cc1ccc(-c2ccccc2C2=NC(C)(C)CO2)cc1)C(c1ccccc1)(c1ccccc1)c1ccccc1,151 to 153
26,CCCCN(N)C(=O)NC,48 to 50
27,Cc1cccc(C(O)c2cncn2C(c2ccccc2)(c2ccccc2)c2ccccc2)c1C (stereo unspecified),203 to 207
28,CNc1cc(S(=O)(=O)c2ccccc2)ccn1,142 to 143

row,SMILES,melting point [°C]
1,CN1C(=O)Cc2cc(C3=NNC(=O)CC3)ccc21,261 to 264
2,O=C(O)C12C3C4C5C3C1C5C42 (stereo unspecified),154 to 155
3,COCCCCCC(=NO)c1ccc(Cl)c(Cl)c1,53 to 54.5
4,COC(CCCNC(=O)CCCCC(=O)NCCCC(OC)OC)OC,73 to 75
5,Cc1nn(-c2ccccn2)c2[nH]c3ccc(C(F)(F)F)cc3c(=O)c12,250 to 251
6,CC(=O)c1c[nH]c(CO)n1,147 to 148
7,O=[N+]([O-])C=C1SCCCN1S(=O)(=O)Cc1ccccc1,140 to 141
8,Cc1cc(OC(C)C)ccc1N1CCCn2c1nc1c(Cl)ccc(C(OC(F)F)C(F)(F)F)c12 (stereo unspecified),198 to 204
9,CNc1nnc(-c2ccc3ncn(-c4cccc(OC(F)(F)F)c4)c3c2)o1,226 to 227
10,COc1ccc(/C=C/c2cc(/C=C/c3ccc4cc[nH]c4c3)n[nH]2)cc1OCc1ccccn1,110 to 117
11,CCN(CC)CCC1(C#N)c2ccccc2COc2ccccc21 (stereo unspecified),87 to 90
12,Cc1cc(C)c(CC(C)CC(C(=O)C(CC(C)Cc2c(C)cc(C)cc2C)N2C(=O)c3ccccc3C2=O)N2C(=O)c3ccccc3C2=O)c(C)c1 (stereo unspecified),131 to 132
13,O=Cc1ccc(-c2ccc(-c3ccc(C=O)o3)cc2)o1,233 to 234
14,CCCc1nc2cccc(C(=O)O)c2n1Cc1ccc(-c2ccccc2-c2nc(=O)o[nH]2)cc1,169 to 171
15,CCCN1CCc2c(cccc2NC(=O)c2ccc(OC)cc2)C1,162 to 164
16,COC1=C(OC)C(=O)C2=C(CC(CCCCCCCCN3C(=O)c4ccccc4C3=O)C2)C1=O,91 to 93
17,COc1ccc(C2=NNC(=O)CC2)cc1Cl,194 to 195
18,O=[N+]([O-])c1nccn1CC(O)CN1CCCCC1 (stereo unspecified),108 to 109
19,Cn1cc(C2=C(c3cn(CCCCl)c4ccccc34)C(=O)NC2=O)c2ccccc21,254 to 256
20,CCCCCCCCCCCCCCCCCCOc1cc(NC(=O)OCc2ccccc2)cc(OCCCOc2ccccc2)c1,68 to 69
21,CC1(c2ccc([N+](=O)[O-])cc2)OCCO1,69 to 71
22,O=C(CCl)Nc1cccc([N+](=O)[O-])c1,110 to 112
23,O=C(NO)c1ccc(C(=O)NC/C=C/c2ccccc2)cc1,169 to 170
24,Nc1ccccc1NCCCN1CCC(n2c(=O)[nH]c3cc(Cl)ccc32)CC1,196
25,CC1(C)Cc2nc(C3CCCC3)c(C(=O)c3ccc(C(F)(F)F)cc3)c(-c3ccc(F)c(F)c3)c2C(O)C1 (stereo unspecified),166 to 168
26,CC(=O)N1CCc2c(Br)ccc([N+](=O)[O-])c2C1,159 to 161
27,N#Cc1cc([N+](=O)[O-])ccc1Oc1ccc(Cl)c(Cl)c1,154 to 155

# More lines, now with the values ahead:
row,melting point [°C],SMILES
1,157 to 158,CC(C)(C)c1ccc(CCCC(O)CC2CCCCC2)cc1NC(=O)CC1c2ccccc2Oc2ccccc21 (stereo unspecified)
2,287 to 289,Cc1c(O)ccc2c(O)c(C(=O)Nc3cccc(F)c3)c(=O)oc12
3,210 to 212,N=C(NCC1CCCO1)Nc1c([N+](=O)[O-])cnc2ccccc12 (stereo unspecified)
4,81 to 83,CCOC(=O)c1[nH]ccc1OCC
5,231 to 232,CCN1C(=O)CCCc2ccc(Nc3ncc(Br)c(Nc4c(F)cccc4C(=O)NC)n3)cc21
6,147 to 150,Cc1ccc2ccccc2c1C1OC(=O)NC1=O (stereo unspecified)
7,218 to 220,CC(C)(C)c1cc(CCc2cc(F)cc(F)c2NC(=O)NC23CC4CC(CC(C4)C2)C3)cc(C(C)(C)C)c1O
8,108 to 109,COc1ccc(COc2nn(Cc3ccccc3)cc2CO)cc1OCc1nc(-c2ccco2)oc1C
9,88 to 90,COC(=O)[C@@H]1OC(c2ccc(O)c(OC)c2)O[C@H]1C(=O)OC
10,131,CCOc1ccc2c(c1)n(C1CCCCC1)c(=O)n2S(=O)(=O)c1ccc(C(=O)OCc2ccccc2)cc1OC
11,92 to 93,COc1cccc(CC(=O)O)c1OCCCc1ccc(OC(C)C)cc1Oc1ncc(Cl)cc1Cl
12,85 to 86,CNC(=O)c1c(OC(C)C)c2cc(OC)ccc2n1C
13,106,CNC(=O)NCCN(c1ccc(Cl)cc1Cc1c(F)cccc1F)S(=O)(=O)c1ccc(OC)c(OC)c1
14,66 to 70,CC(C)(Oc1ccc(CCCc2cc(-c3ccccc3)no2)cc1)C(=O)O
15,199,CC(C)(C)OC(=O)Cn1ccc2cc(NC(=O)CC34CC5CC(CC(C5)C3)C4)ccc21
16,85 to 87,COc1ccc([N+](=O)[O-])cc1OCCCCl
17,268 to 270,O=C(NCc1ccc(Cl)cc1)c1cnc2c(F)cc(I)cc2c1O
18,169,Cc1cc(OCCCS(C)(=O)=O)cc(C)c1-c1cccc2c1OC[C@H]2Nc1ccc2c(c1)OC[C@H]2CC(=O)O
19,181 to 183,NC(=O)[C@H]1CN(c2cc(F)c(N3CCOCC3)c(F)c2)C(=O)O1
20,47 to 50,CN1CCC(c2cccc3ccc(C(=O)NCCCc4ccccc4)cc23)CC1
21,90 to 92,C=CC(=O)NCc1cc(C)c(OCC2CO2)c(C)c1 (stereo unspecified)

row,melting point [°C],SMILES
1,152 to 153,COC(=O)C1=CC(C)(N)NC(C2CC2)=N1 (stereo unspecified)
2,67 to 88,CC(=O)OCCOCn1ccc2c(Cl)ncnc21
3,193 to 194,CC(C)CSc1cc(C(=O)O)cc(S(N)(=O)=O)c1Oc1ccccc1
4,157 to 159,O=C(O)c1ccc(OCC(O)c2cc3cc(Cl)ccc3o2)cc1 (stereo unspecified)
5,164 to 165,C=CCn1c(Cc2ccccc2)c(CC)c(=O)[nH]c1=O
6,56 to 59,C#CCN(C(=O)OC(C)(C)C)C1CCc2ccc([N+](=O)[O-])cc21 (stereo unspecified)
7,302 to 303,O=c1[nH]c2ncc(-c3ccc(O)cc3)nc2n1CC1CCCCC1
8,134 to 135,COCCN1C(=O)CCCc2cc(N)ccc21
9,91.4,CCCCc1ccc(N2CCC(CCOc3ccc(C(=O)OCC)cc3)CC2)nn1
10,192,CCC(=O)N[C@H]1CC[C@H](CCN2CCC(c3cccc4c3CCO4)CC2)CC1
11,120 to 121,Cc1oc(-c2ccccc2)nc1COc1ccc(CCCC2OC(=O)NC2=O)cc1OC(C)C (stereo unspecified)
12,55 to 58,Cc1cccc(Cl)c1NC(=O)n1nc(Oc2cccc(C(F)(F)F)c2)cc1C
13,91 to 93,CCCCCCCCCCCCCCCCNC(=O)c1cc(OCCBr)c2ccccc2c1O
14,221 to 223,Cc1cc(-c2nnc3cc(C(C)(C)C)c(OCc4ncn(C)n4)nn23)no1
15,206,Cc1cc(C)cc(N(CCCC(N)=O)Cc2ccc3nc(NCCCN4CCOCC4)n(Cc4cccc5c4ncn5C)c3c2)c1
16,191 to 194,CCOC(=O)C(=CNc1ncnc2ccc(NC(=O)C(CC)CC)cc12)C(=O)OCC
17,120 to 122,CCCC1(C(=O)O)c2ccccc2-c2ccccc21
18,209 to 210,CCCCOc1c(CNC(=O)OC(C)(C)C)n(CC(C)C)c(=O)c2ccc(C(N)=NO)cc12
19,168 to 170,Cc1cnc(C2=NC(C)(C(C)C)C(=O)N2)c(C(=O)c2cccs2)c1 (stereo unspecified)
20,224 to 227,Cc1ccc(NC(=O)c2ccccc2SSc2ccccc2C(=O)Nc2ccc(C)c(C)c2)cc1C
